In patent US11046647B2, “Activators of the unfolded protein response” (The Board of Trustees of the University of Illinois, priority 2018, dated 2021):

How the values were obtained:
Assay type in all cases: cell-based, human
[1] = system: MCF-7 cells; assay: Dose-dependent death of MCF-7 cells (FIG. 10)
[2] = system: TDG cells; assay: Trypan Blue exclusion cell death assay, TDG / TDG-Luc; conditions: 24 hours
Description: (§1) TRYPAN BLUE: For decades, viable cells have been measured by their ability to exclude the dye Trypan Blue. […] Dead cells, which have lost membrane integrity, take up the dye and are blue. Thus, the percentage of dead cells is the percentage of cells that are Trypan Blue positive out of the total cell population. Quantitative assessment of Trypan Blue uptake uses a cell counter from Fisher. Since the assay is instrument based, there is no observer bias in determining the percentage of Trypan Blue positive cells.
(§2) TRYPAN BLUE ASSAYS: Assays are performed on cells in 6 well plates: 300,000 cells are plated in each well of a 6-well plate in 3 ml of medium. After 24 hours, the DMSO vehicle or the indicated compound is added (in 1000th of the vol.) The cells incubated for an additional 24 hours, and then harvested in 0.25 ml of trypsin, followed after harvest by 0.75 ml of medium. The cells are spun down and resuspended in 100-200 μl of medium left that is over the cell pellet (resuspend cells by pipetting up and down a few times). Add 10 μl to 10 μl of trypan blue. Then 10 μl is inserted into the counting slide. After inserting the slide into the Fisher TC20 counting is automatic (these many cells are needed because an accurate ratio of Trypan Blue positive to Trypan Blue negative cells requires about 200 cells in the field the instrument counts).
The Trypan Blue cell death assay was used to evaluate the ability of the active enantiomer of C-105 [(−)-105] to kill ERα positive TDG-Luc cells. For all studies, 300,000 TDG-Luc cells/well in 10% FBS were plated in a 6-well plate in triplicate. 24 hours after plating, the indicated concentrations the active enantiomer of (−)-105, or BHPI (top) ICI, or OHT (Lower left) or (+)-105 (lower right) were added. After 24 hours, the cells were harvested, and the % dead cells was determined by automated Trypan Blue exclusion using the Countess II automated hemocytometer. Percentage of viable cells was calculated by doing 100-(Cell Death %). (n=3±SEM).
TDG cells were incubated for 24 hours with 75 nM of BHPI or 75 nM of each of the indicated test compounds: 4, 6 and (±)-105 (enantiomers not separated). Cell death was determined using the instrument-based Trypan Blue exclusion assay. Structures are in the Synthesis section. […] (n=3±SEM).

[3] = system: T47D cells; assay: Trypan Blue exclusion cell death assay, T47D / T47D-Luc; conditions: 24 hours
Description: as §1
as §2, with “After inserting the slide into the Fisher TC20 counting is automatic (these many cells are needed because an accurate ratio of Trypan Blue positive to Trypan Blue negative cells requires about 200 cells in the field the instrument counts).” left out
The Trypan Blue cell death assay was used to compare the ability of the active (−) enantiomer of C-105 and BHPI to kill estrogen receptor α (ERα) positive T47D, human breast cancer cells expressing luciferase (T47D-Luc cells). […] After 24 hours, the cells were harvested, and the % dead cells was determined by automated Trypan Blue exclusion using the Countess II automated hemocytometer. Percentage of viable cells was calculated by doing 100-(Cell Death %). […]
T47D cells were incubated for 24 hours with 75 nM of BHPI or 75 nM of each of the indicated test compounds: 4 and 6. Cell death was determined using the instrument-based Trypan Blue exclusion assay. […]
T47D cells were treated for 24 hours with 100 nM BHPI, or with 100 nM of each of the test compounds: 6, 8, and 105. […] Cell death was determined using the instrument-based Trypan Blue exclusion assay. […]

[4] = system: MCF-7 cells; assay: Alamar Blue/raptinal 24-hour cell death assay, MCF-7; conditions: for IC50: 24-hour incubation, Alamar blue fluorescence, normalized to vehicle and raptinal
Protocol: FIG. 4. […] MCF7 (ERα) cells, 24 hour incubation, read out via Alamar Blue Fluorescence, Dead Control: Raptinal, n=3 (A, B). […] Orthotopic Mouse Xenograft breast cancers of TYS cells, Visualization by bioluminescent imaging. Treatment: 40 mg/kg daily (−)-105 for 3 days either by oral gavage or by intraperitoneal injection.
ALAMAR BLUE/RAPTINAL ASSAY: Live cells maintain a reducing environment. The non-fluorescent cell permeable ingredient of Alamar Blue® (resazurin) is taken up by cells. In living cells, it is reduced to the fluorescent compound resorufin. Using a standard curve of cell number versus fluorescence the number of live cells in a test sample can be determined. At high concentrations raptinal kills 100% of cells. The vehicle in which the test compound is dissolved is not toxic. Thus, after subtracting the blank for medium alone, the fluorescence reading for vehicle corresponds to 100% viable cells and the signal for raptinal corresponds to 0% viable cells. While this assay provides a less direct measurement of cell death than the trypan blue assay, it is more easily scaled up to large numbers of samples.
ALAMAR BLUE RAPTINAL ASSAYS: Cells were plated at 4,000-10,000 cells/well (96 well plate), usually in 50 μl of medium. After about 18 hours, an additional 50 μl of medium containing 2× the desired final concentration of the test compound (C-105) was added to each well. After 24 hours Alamar Blue reagent was added and fluorescence in the wells was read (BMG PheraStar or Molecular Devices Spectra Max M3 Microplate Reader). % relative death was determined by setting the reading for raptinal-treated cells to 100% dead cells and the reading for vehicle-treated cells to 0% dead cells.
Preparative gram-scale chiral separation of (±)-1 yields enantiopure (R)-1 and (S)-1 with opposite optical rotations (Scheme 5). […] Values were obtained after 24-hour incubation utilizing Alamar blue fluorescence assay normalized to live and death controls (vehicle and raptinal treated). (S)-1 IC50 is >1 μM. Error shown as S.E.M.

[5] = system: TYS cells; assay: Trypan Blue exclusion cell death assay, TYS / TYS-Luc; conditions: 24 hours
Description: as §1, §2
The Trypan Blue cell death assay was used to evaluate the ability of the active enantiomer of 105 (−) [(−)-105] to kill ERα positive MCF-7 and TYS-Luc, human breast cancer cells. 300,000 T47D cells/well in 10% FBS were plated in a 6-well plate in triplicate. 24 hours after plating, the indicated concentrations of BHPI, or the active enantiomer 105 (−) of C-105 [(−)-105] was added. After 24 hours, the cells were harvested, and the % dead cells was determined by automated Trypan Blue exclusion using the Countess II automated hemocytometer. Percentage of viable cells was calculated by doing 100-(Cell Death %). (n=3±SEM).
TYS cells were incubated for 24 hours with 35 nM of BHPI or 35 nM of each of the indicated test compounds: 2, 4, and 105. Cell death was determined using the instrument-based Trypan Blue exclusion assay.
TYS cells were incubated for 24 hours with 50 nM of BHPI or 50 nM of each of the indicated test compounds: 4, 6 and 105. Cell death was determined using the instrument-based Trypan Blue exclusion assay. (n=3±SEM).

Row | SMILES | cell death [1] | ability to kill TDG cells compared to BHPI ([2]; 75 nM) | ability to kill T47D cells compared to BHPI ([3]; 100 nM) | IC50 ([4]; Homo sapiens, MCF7) | ability to kill TYS cells compared to BHPI ([5]; 35 nM) | ability to kill TYS cells compared to BHPI ([5]; 50 nM) | killing of TDG-Luc cells, dose response ([2]; TDG-Luc) | killing of T47D cells, dose response ([3]; T47D-Luc) | IC50 ([4]; listed as (R)-1) | ability to kill compared with BHPI and 01-15 (FIG. 4B) ([4]; 24 hour incubation, dead control raptinal) | killing of TYS-Luc cells, dose response ([5]; TYS-Luc)
1 | O=C1Nc2c(C(F)(F)F)cccc2C1(c1ccc(O)cc1)c1ccc(OC(F)(F)F)cc1 (racemic) [(±)-105, 3-(4-hydroxyphenyl)-3-(4-(trifluoromethoxy)phenyl)-7-(trifluoromethyl)indolin-2-one] | inactive | greatly increased ability to kill | increased ability to kill | 42.6 nM | greatly increased ability to kill | increased ability to kill |  |  |  |  | 
2 | O=C1Nc2c(C(F)(F)F)cccc2C1(c1ccc(O)cc1)c1ccc(OC(F)(F)F)cc1 (single isomer, unassigned; (-)) [(−)-105, 3-(4-hydroxyphenyl)-3-(4-(trifluoromethoxy)phenyl)-7-(trifluoromethyl)indolin-2-one] | induces dose-dependent death |  |  |  |  |  | superior to BHPI and current endocrine therapies | superior to BHPI | 20.3 nM | superior to BHPI and 01-15 | superior to BHPI
